# What was measured:
# [1] = Pharmacokinetic evaluation in mice (plasma); format: in vivo; settings: mouse, male CD-1 mice
# Method: Objective of assay: To study the in vivo pharmacokinetic properties of the compound of the present disclosure in mice.
# Each assay compound was mixed with DMAC respectively, and vortexed for 2 minutes. The solution of the assay compound in DMAC was mixed and vortexed for 2 minutes to prepare a clear solution of 10 mg/mL. 0.0600 mL of 10 mg/mL solution was added to 0.300 mL of Solutol, and the mixture was vortexed for 2 minutes. Then 2.400 mL of normal saline was added, and the mixture was vortexed for 2 minutes to obtain a clear solution of 0.2 mg/mL, which was used for administration in PO group, 0.500 mL of the solution for administration in PO group was vortexed for 2 minutes, and 0.0500 mL of DMAC was added. The mixture was vortexed for 2 minutes, and then 0.0500 mL of solutol was added. The mixture was vortexed for 2 minutes, and finally 0.400 mL of normal saline was added. The mixture was vortexed for two minutes to give a clear solution of 0.1 mg/mL, which was filtered through a microporous membrane to give a solution for administration in injection (IV) group.
# Four male CD-1 mice were divided into two groups. The animals in the first group were administered intravenously once at a dose of 0.5 mg/kg, wherein the vehicle was 10% DMAC/10% Solutol/80% normal saline, and the administration volume was 5 mL/kg. The animals in the second group were administered orally 2 mg/kg of the assay compound by oral gavage, wherein the oral vehicle was 10% DMAC/10% Solutol/80% normal saline, and the oral volume was 10 mL/kg. Whole blood was collected at 0.033 (IV injection only), 0.083, 0.25, 0.5, 1, 2, 4 and 12 hours post-dose. The whole blood was centrifuged at 3200 g at 2-8° C. for 10 min to obtain plasma. The concentration of the assay compound in plasma was determined by ILC/MS/MS method, and the pharmacokinetic parameters were calculated by Phoenix WinNonlin software.
# The parameters have the following meanings: IV: intravenous injection; PO: oral administration; C0: initial plasma drug concentration; Cmax: maximum drug concentration in systemic circulation; Tmax: time required to reach Cmax; T1/2: half-life; Vdss: apparent volume of distribution; Cl: clearance rate; AUC0-last: area under the drug-time curve.
# [2] = test system: endometriotic lesion in mice; test: In vivo efficacy evaluation in a mouse model of endometriosis
# Text: Objective of assay: To evaluate the efficacy of the compound of the present disclosure in a mouse model of endometriosis.
# Animal estrous cycle detection in 8-week-old C57BL6/J female mice: Through vaginal smear observation, mice that met the specific estrous cycle on the day of the assay were selected according to the actual smear results because the entire estrous cycle was about 4 days. Modeling: The uterine horns of donor mice in an estrous cycle were excised, and opened longitudinally. The excised biopsies were cut to a size of 2×2 mm. Recipient mice were anesthetized with isoflurane gas, and a 1 cm incision was made along the midline to expose the abdominal cavity. Endometriotic mice: four uterine fragments of donors were sutured to the peritoneal wall of mice in an estrous cycle; sham-operated mice: abdominal fat fragments of similar size were sutured. The grafted tissue as well as the abdominal muscle and skin were sutured using 8-0 black silk thread. Sham group (sham-operation group): the abdominal cavity of each mouse in the Sham group was opened to transplant fat fragments, and the rest of the steps were the same.
# After 4 weeks of modelmg, a second laparotomy was performed, and the ectopic lesion volume (V1) was measured using a vernier caliper and calculated to determine the success of the modeling. Twelve mice with relatively uniform V1 were selected and divided into 2 groups with 6 nice in each group: Vehicle (vehicle control group) and drug group.
# Sham group (sham-operation group, 6 animals): normal feeding; Vehicle group (vehicle control group, 6 animals); vehicle was intragastrically administered once a day for 8 consecutive weeks. […]
# After 8 weeks of administration, samples were obtained from the mice: the ectopic lesion volume (V2) was measured using a vernier caliper and calculated. The inhibition rate was calculated using a calculation formula of: ectopic lesion volume V=π/6×length×width×height, wherein length represents the length of an ectopic lesion, width represents the width of an ectopic lesion, and height represents the height of an ectopic lesion;
# [3] = target: human gonadotropin-releasing hormone receptor (Homo sapiens (Human), UniProt P30968); test: FLIPR calcium flow assay of inhibitory activity on gonadotropin-releasing hormone receptor in GnRH/HEK293 cells; format: cell-based; settings: Ca2+ flow, agonist Leuprolide acetate, read-out: IC50 on inhibiting the activity of human gonadotropin-releasing hormone receptor
# Method: Objective of assay: to detect the inhibitory activity of assay compounds on gonadotropin-releasing hormone receptor at the cellular level using FLIPR detection technology.
# GnRH/HEK293 (human embryonic kidney cell 293) cultured cells in the logarithmic growth phase were washed with DPBS (Dulbecco's phosphate buffered saline) buffer, and an appropriate amount of 0.05% EDTA (ethylenediaminetetraacetic acid)-trypsin was added. The cells were placed in a carbon dioxide incubator at 37° C. for digestion for 1-2 minutes, and then removed from the incubator. A medium was added to the cells to terminate the digestion. Cells were dispersed by repeated pipetting and harvested by centrifugation. […]
# On the next day, 20 μL, of 2×Fluo-4Direct™ buffer was added to each well, and the plate was incubated in a 5% CO2, 37° C. incubator for 50 minutes. […] The fluorescence signal was read. Then 10 μL of the reference compound as an agonist was added, and the fluorescent signal was read. EC50 was calculated, and the agonist with a concentration of 6×EC50 was prepared.
# 2 mM assay compounds and an appropriate concentration of reference compound were serially diluted 4-fold to 10 concentrations in ECHO, and 900 nL of that was transferred to a compound plate. […] The fluorescent signal was read. Then 10 μL of agonist with a concentration of 6×EC50 was added to the cell plate and the fluorescent signal was read. […]
# Sequence of human gonadotropin-releasing hormone receptor (P30968 whole entry): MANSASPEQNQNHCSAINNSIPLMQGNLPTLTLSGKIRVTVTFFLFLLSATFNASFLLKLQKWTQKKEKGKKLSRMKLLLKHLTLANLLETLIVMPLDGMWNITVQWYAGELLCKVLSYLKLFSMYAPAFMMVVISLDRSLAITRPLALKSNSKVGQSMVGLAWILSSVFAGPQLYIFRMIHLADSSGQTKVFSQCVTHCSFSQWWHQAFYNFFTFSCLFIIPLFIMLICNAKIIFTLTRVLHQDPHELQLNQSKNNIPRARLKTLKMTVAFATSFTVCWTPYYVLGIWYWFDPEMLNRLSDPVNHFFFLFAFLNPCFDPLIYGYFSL
smiles,measurement,setting,value
O=C(O)c1scc2[nH]c(=O)n(-c3cc4c(cc3F)OCCCOc3ccc(F)c(F)c3CO4)c(=O)c12 [Compound 1],AUC(0-t),[1]; IV 0.5 mg/kg,48.3 µM·h
same,C0,[1]; IV 0.5 mg/kg,13.5 µM
same,clearance,[1]; IV 0.5 mg/kg,0.332 mL/min/kg
same,half-life,[1]; IV 0.5 mg/kg,5.66 h
same,Vd,"[1]; IV 0.5 mg/kg, read-out: Vdss",0.159 L/kg
same,bioavailability,[1]; PO 2 mg/kg vs IV 0.5 mg/kg,95.3%
same,AUC(0-t),[1]; PO 2 mg/kg,143 µM·h
same,Cmax,[1]; PO 2 mg/kg,25.8 µM
same,Tmax,[1]; PO 2 mg/kg,0.5 h
same,half-life,[1]; PO 2 mg/kg,5.03 h
same,Volume of endometriotic lesion in mice V1,"[2]; Mean ± SD, n = 6, 4 weeks after modeling, before administration (baseline)",9.89 ± 1.51 mm^3
same,Volume of endometriotic lesion in mice V2,"[2]; Mean ± SD, n = 6, after 8 weeks of 100 mpk intragastric once daily",6.78 ± 4.46 mm^3
same,Inhibition rate,"[2]; ectopic lesion volume, 100 mpk intragastric once daily for 8 weeks",107.5%
same,IC50,[3],3.2 nM

# Reference: patent US20240158413A1, “FUSED POLYCYCLIC SUBSTITUTED 5-CARBOXYLIC ACID THIENOPYRIMIDINE DIONE COMPOUND AND USE THEREOF” (SOTER BIOPHARMA PTE. LTD., priority 2021, published 2024)
